Results on 17 molecules are retold here after patent EP4043466B1, “PRC2 INHIBITORS” (Mirati Therapeutics, Inc., priority 2018, dated 2019).

A value given as a limit tells only on which side of the number the result lay.

The subject of assay [1] is Karpas 422 cells. The experiment in a line: Karpas 422 cell viability, CTG (Cell Titre Glo) assay. The class given is cell-based, human. The following applies: Homo sapiens; Inhibition of proliferation of Karpas 422 cells (EZH2 Y641N); viability measured Day 4, Day 7 or Day 11, time point of the tabulated values not stated. A digest of the protocol: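 Karpas 422 cells (EZH2 Y641N, DLBCL) plated at 1000 cells/well in RPMI with 20% FBS, exposed to compound 10µM down to 1.5nM in 3-fold steps at 37 °C. Viability by CellTiter-Glo on Days 4, 7 and 11; Day 11 plates re-fed with fresh medium and compound on Day 7. IC50 per time point.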

Assay [2] concerns the target purified human, His-tagged PRC2 complex (Homo sapiens, UniProt O75530+Q15910). The experiment in a line: Hot Spot HMT assay: inhibition of PRC2 enzymatic activity (transfer of tritiated methyl from SAM to core histone, filter binding). The class given is biochemical. To be noted: Inhibition of PRC2-mediated enzymatic activity; 10 nM PRC2 complex, 0.05 mg/ml core histone H3, 1 uM 3H-SAM, 1 hr at 30°C. In a few lines:
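Five-subunit complex (His-EZH2, Flag-EED, His-SUZ12, His-AEBP2, His-RbAp48) at 10 nM with 0.05 mg/ml core histone H3, pH 8 Tris buffer, 1% DMSO; 20 min compound pre-incubation at 30°C. Started with 1 uM [3H]-SAM, 1 hr at 30°C; tritiated H3 counted by scintillation. Compounds diluted from 1.0 µM top concentration.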

Assay [3] deals with PRC2-mediated histone H3 methylation. The experiment in a line: Tri-Methyl Histone H3 (Lys 27) Sandwich ELISA in Pfeiffer cells: inhibition of PRC2-mediated histone H3 methylation. The class given is cell-based, human. The following applies: Homo sapiens; Inhibition of EZH2-mediated histone H3 trimethylation; Pfeiffer cells (EZH2 A677G), 96 hours incubation. From the text: The Pfeiffer cell line was established from a […] from a patient having metastatic diffuse large B-cell lymphoma (DLBCL). This cell line expresses a mutant form of the EZH2 enzyme (A677G) that results in enhanced EZH2 activity leading to increased methylation of histone H3 Lys27. Increased trimethylation of histone H3 Lys27 is believed to be implicated in tumorgenesis and poor clinical prognosis in lymphomas (McCabe et al., (2012) Nature 492:108-112).
Inhibition of PRC2-mediated histone H3 methylation by compounds of Formula (I) was measured by ELISA using a Tri-Methyl Histone H3 (Lys 27) Sandwich ELISA Kit (Cell Signaling Tech #7866C) in accordance with the manufacturer's instructions. Briefly, Pfeiffer cells were cultured in RPMI medium supplemented with 10% fetal bovine serum and 1% penicillin and 1% streptomycin in 96 well culture plates at 37°C to a density of 8000 cells/90µl/well and the cells were harvested. A series of 3-fold serial dilutions of each test compound of Formula (I) were prepared in RPMI medium and added to the cells at final concentrations ranging from 1µM to 0.15 nM. The plates were incubated at 37°C for 96 hours.
After incubation, the cells were pelleted by centrifugation in a pre-cooled 4°C rotor at 1, 100 rpm for 10 min and the supernatant was removed by aspiration. The cell pellet was resuspended in 55µl of Lysis Buffer (0.4M HCl) and incubated on ice with periodic shaking for 30 minutes. The lysed cells were subjected to centrifugation at 4, 200 rpm for 10 min at 4°C and the supernatant containing acid-soluble proteins was collected and the remainder discarded. The acid-soluble proteins were brought to a neutral pH by the addition of 20 µl of Neutralization Buffer (1 M Sodium phosphate, dibasic (pH 12.5), 2.5 mM DTT and 1 mM PMSF) and the neutralized lysates were analyzed by ELISA.
A 65 µl aliquot of each cell lysate was added to a well of a microwell strip, the microwells were sealed using tape and incubated either at 37°C for two hours or at 4°C overnight. After incubation, the tape was removed at the microwells were washed four times using 200 µl of 1X Wash Buffer. To each washed microwell, a 100 µl aliquot of an antitrimethyl histone H3 Lys27 Detection Antibody solution was added and the microwells were incubated at 37°C for one hour. The Detection Antibody solution was removed by aspiration and the wells were washed four times each using 200 µl of 1X Wash Buffer.
A 100 µl aliquot of an HRP-linked secondary antibody was added to each well, the wells were sealed with tape and incubated at 37°C for 30 min. The HRP-linked secondary antibody solution was removed by aspiration and the wells were washed four times using 200 µl of 1X Wash Buffer. A 100 µl aliquot of a TMB substrate was added to each well, the wells were sealed with tape and incubated at 37°C for 10 min or 25°C for 30 min. The reaction was stopped by the addition of 100 µl aliquot of a STOP solution and the plate was shaken briefly. The degree of histone H3 trimethylation was determined using a spectrophotometric readout by measuring the absorbance at 450 nm and then calculating the amount of trimethylated histone H3. A = ≤100 nM; B = >100 nM - ≤500 nM; C = >500 nM and N.D. = not determined.

Chain of purified human, His-tagged PRC2 complex (Q15910 whole entry): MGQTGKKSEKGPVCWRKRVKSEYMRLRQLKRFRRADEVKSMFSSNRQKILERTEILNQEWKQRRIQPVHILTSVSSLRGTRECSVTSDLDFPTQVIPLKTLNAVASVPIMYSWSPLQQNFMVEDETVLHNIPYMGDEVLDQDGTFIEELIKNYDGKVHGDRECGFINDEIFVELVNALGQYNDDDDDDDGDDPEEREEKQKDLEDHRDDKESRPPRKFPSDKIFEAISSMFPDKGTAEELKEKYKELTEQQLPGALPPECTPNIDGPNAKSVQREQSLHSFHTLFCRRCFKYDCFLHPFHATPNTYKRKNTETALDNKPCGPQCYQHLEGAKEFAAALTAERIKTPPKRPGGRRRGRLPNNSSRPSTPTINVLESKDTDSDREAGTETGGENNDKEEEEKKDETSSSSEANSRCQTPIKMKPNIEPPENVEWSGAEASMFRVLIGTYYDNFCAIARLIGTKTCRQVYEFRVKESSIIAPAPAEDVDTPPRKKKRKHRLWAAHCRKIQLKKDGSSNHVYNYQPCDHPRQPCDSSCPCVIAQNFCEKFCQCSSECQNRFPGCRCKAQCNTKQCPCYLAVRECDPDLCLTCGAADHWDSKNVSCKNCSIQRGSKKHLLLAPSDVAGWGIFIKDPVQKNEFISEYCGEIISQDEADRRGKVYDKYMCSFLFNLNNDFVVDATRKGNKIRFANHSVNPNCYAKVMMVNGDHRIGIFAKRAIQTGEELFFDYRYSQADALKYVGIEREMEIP
Chain of purified human, His-tagged PRC2 complex (O75530 whole entry): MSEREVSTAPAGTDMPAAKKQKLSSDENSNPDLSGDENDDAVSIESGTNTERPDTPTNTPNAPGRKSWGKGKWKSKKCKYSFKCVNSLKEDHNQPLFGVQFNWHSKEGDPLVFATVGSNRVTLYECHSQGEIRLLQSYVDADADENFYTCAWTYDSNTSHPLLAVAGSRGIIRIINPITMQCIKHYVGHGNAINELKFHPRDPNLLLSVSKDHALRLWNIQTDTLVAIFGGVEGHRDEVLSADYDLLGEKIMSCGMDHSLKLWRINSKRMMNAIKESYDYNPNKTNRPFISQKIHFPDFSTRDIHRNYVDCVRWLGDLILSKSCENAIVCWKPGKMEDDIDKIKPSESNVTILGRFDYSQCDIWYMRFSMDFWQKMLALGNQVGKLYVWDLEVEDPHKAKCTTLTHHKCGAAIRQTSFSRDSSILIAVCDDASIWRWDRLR
Chain of purified human, His-tagged PRC2 complex (Q15022 whole entry partner): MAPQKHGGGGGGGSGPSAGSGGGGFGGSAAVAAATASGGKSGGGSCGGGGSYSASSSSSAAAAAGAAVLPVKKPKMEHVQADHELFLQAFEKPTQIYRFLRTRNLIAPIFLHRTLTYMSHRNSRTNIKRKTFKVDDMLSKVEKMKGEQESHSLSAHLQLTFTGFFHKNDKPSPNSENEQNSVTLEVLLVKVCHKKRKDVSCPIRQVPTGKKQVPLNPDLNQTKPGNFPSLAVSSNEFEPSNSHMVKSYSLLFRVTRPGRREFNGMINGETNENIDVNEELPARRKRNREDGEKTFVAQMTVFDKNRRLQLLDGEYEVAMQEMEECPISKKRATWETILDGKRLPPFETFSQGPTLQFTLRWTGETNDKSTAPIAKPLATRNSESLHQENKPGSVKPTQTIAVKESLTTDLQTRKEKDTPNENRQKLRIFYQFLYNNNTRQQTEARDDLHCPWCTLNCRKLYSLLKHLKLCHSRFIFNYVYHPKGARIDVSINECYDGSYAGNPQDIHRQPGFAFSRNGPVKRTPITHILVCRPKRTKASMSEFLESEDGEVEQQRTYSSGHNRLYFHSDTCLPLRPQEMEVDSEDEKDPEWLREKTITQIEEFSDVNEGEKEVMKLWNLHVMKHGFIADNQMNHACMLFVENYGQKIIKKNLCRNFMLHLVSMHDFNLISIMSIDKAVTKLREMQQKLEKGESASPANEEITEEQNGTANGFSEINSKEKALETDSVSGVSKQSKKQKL
Chain of purified human, His-tagged PRC2 complex (Q6ZN18 whole entry partner): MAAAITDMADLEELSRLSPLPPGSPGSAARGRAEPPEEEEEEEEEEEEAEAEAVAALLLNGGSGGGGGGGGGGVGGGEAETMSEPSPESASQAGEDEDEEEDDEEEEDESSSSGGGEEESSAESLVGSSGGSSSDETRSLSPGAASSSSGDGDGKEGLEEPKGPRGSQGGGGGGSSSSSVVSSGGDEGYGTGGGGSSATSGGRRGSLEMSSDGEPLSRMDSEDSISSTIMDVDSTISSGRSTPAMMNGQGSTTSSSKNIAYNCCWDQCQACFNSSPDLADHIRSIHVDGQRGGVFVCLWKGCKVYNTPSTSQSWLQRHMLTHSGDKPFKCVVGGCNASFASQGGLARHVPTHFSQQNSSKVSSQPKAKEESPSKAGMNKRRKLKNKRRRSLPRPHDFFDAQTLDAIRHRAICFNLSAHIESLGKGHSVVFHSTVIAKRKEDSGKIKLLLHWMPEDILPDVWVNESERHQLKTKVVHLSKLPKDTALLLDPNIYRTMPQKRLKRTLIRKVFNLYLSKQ
Chain of purified human, His-tagged PRC2 complex (Q09028 whole entry partner): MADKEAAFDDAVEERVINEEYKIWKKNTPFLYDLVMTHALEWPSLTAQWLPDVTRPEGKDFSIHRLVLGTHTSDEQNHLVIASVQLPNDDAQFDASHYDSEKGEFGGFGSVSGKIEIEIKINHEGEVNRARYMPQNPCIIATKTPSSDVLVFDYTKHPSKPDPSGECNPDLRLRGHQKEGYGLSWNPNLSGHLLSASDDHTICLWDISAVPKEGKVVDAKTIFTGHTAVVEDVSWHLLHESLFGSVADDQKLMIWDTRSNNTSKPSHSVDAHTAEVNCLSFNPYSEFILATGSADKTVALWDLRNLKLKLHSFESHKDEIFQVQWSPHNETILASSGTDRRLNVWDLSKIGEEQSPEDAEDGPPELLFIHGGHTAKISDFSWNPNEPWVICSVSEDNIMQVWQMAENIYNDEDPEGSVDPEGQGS

The IC50 is the midpoint of a concentration-inhibition curve. As to `CCOP(=O)(OCC)c1ccc(-c2cnc(NCc3c(F)ccc4c3CCO4)n3cc(C#N)nc23)cc1` [Example 164, diethyl (4-(2-cyano-5-(((5-fluoro-2,3-dihydrobenzofuran-4-yl)methyl)amino)imidazo[1,2-c]pyrimidin-8-yl)phenyl)phosphonate], the concentration for half-maximal inhibition (IC50) in assay [1] was at most 250 nM; in assay [2], below 100 nM; in assay [3] it was at most 100 nM.

For `Cc1cc(CN(C)C)ccc1-c1cnc(NCc2c(F)ccc3c2C(O)CO3)n2cc(C#N)nc12` (stereo not drawn) [Example 207, 8-(4-((dimethylamino)methyl)-2-methylphenyl)-5-(((5-fluoro-3-hydroxy-2,3-dihydrobenzofuran-4-yl)methyl)amino)imidazo[1,2-c]pyrimidine-2-carbonitrile], the values for the IC50 in assay [1], in assay [2] and in assay [3] were at most 250 nM, below 100 nM and at most 100 nM, respectively.

For `N#Cc1cn2c(NCc3c(F)ccc4c3CCO4)ncc(-c3ccc([C@H]4CCCN4)cc3)c2n1` [Example 220, (R)-5-(((5-fluoro-2,3-dihydrobenzofuran-4-yl)methyl)amino)-8-(4-(pyrrolidin-2-yl)phenyl)imidazo[1,2-c]pyrimidine-2-carbonitrile], the results for the IC50 in assay [1], in assay [2] and in assay [3] were at most 250 nM, 100 to 500 nM and 100 to 500 nM, respectively.

As to `CN(C)Cc1ccc(-c2cnc(NCc3c(F)ccc4c3CCO4)n3cc(C#N)nc23)c(C#N)c1` [Example 198, 8-(2-cyano-4-((dimethylamino)methyl)phenyl)-5-(((5-fluoro-2,3-dihydrobenzofuran-4-yl)methyl)amino)imidazo[1,2-c]pyrimidine-2-carbonitrile], the IC50 in assay [1] was at most 250 nM; in assay [2] it was below 100 nM; in assay [3] it was 100 to 500 nM.

On to `Cc1cc(-c2cnc(NCc3c(F)ccc4c3CCO4)n3cc(C#N)nc23)n(C)n1` [Example 86, 8-(1,3-dimethyl-1H-pyrazol-5-yl)-5-(((5-fluoro-2,3-dihydrobenzofuran-4-yl)methyl)amino)imidazo[1,2-c]pyrimidine-2-carbonitrile], for which the IC50 in assay [1] is at most 250 nM; in assay [2], below 100 nM; in assay [3], at most 100 nM.

`CNC(=O)c1cc(-c2cnc(NCc3c(F)ccc4c3CCO4)n3cc(C#N)nc23)n(C)n1` [Example 208, 5-(2-cyano-5-(((5-fluoro-2,3-dihydrobenzofuran-4-yl)methyl)amino)imidazo[1,2-c]pyrimidin-8-yl)-N, 1-dimethyl-1H-pyrazole-3-carboxamide]: the IC50 was at most 250 nM in assay [1], below 100 nM in assay [2] and 100 to 500 nM in assay [3].

For `Cc1nc(-c2cnc(NCc3c(F)ccc4c3CCO4)n3cc(C#N)nc23)c(C)s1` [Example 145, 8-(2,5-dimethylthiazol-4-yl)-5-(((5-fluoro-2,3-dihydrobenzofuran-4-yl)methyl)amino)imidazo[1,2-c]pyrimidine-2-carbonitrile], the IC50 in assay [1] was at most 250 nM; in assay [2], 100 to 500 nM; in assay [3], 100 to 500 nM.

For `CNC(=O)c1ccc(-c2cnc(NCc3c(F)ccc4c3CCO4)n3cc(C#N)nc23)cc1` [Example 186, 4-(2-cyano-5-(((5-fluoro-2,3-dihydrobenzofuran-4-yl)methyl)amino)imidazo[1,2-c]pyrimidin-8-yl)-N-methylbenzamide], the IC50 is at most 250 nM in assay [1], below 100 nM in assay [2] and 100 to 500 nM in assay [3].

Consider `N#Cc1cn2c(NCc3c(F)ccc4c3CCO4)ncc(C3CC3)c2n1` [Example 77, 8-cyclopropyl-5-(((5-fluoro-2,3-dihydrobenzofuran-4-yl)methyl)amino)imidazo[1,2-c]pyrimidine-2-carbonitrile], for which the IC50 was above 500 nM in assay [1], 100 to 500 nM in assay [2] and above 500 nM in assay [3].

For the molecule `N#Cc1cn2c(NCc3c(F)ccc4c3CCO4)ncc(-c3ccc(C4CCN4)cc3)c2n1` (stereo not drawn) [Example 226, 8-(4-(azetidin-2-yl)phenyl)-5-(((5-fluoro-2,3-dihydrobenzofuran-4-yl)methyl)amino)imidazo[1,2-c]pyrimidine-2-carbonitrile], the IC50 in assay [1] was at most 250 nM; in assay [2], 100 to 500 nM; in assay [3] it was 100 to 500 nM.

Take `[2H]C([2H])(c1ccc(-c2cnc(NCc3c(F)ccc4c3CCO4)n3cc(C#N)nc23)c(C)c1)N(C)C` [Example 173, 8-(4-((dimethylamino)methyl-d2)-2-methylphenyl)-5-(((5-fluoro-2,3-dihydrobenzofuran-4-yl)methyl)amino)imidazo[1,2-c]pyrimidine-2-carbonitrile]: the IC50 is at most 250 nM in assay [1], below 100 nM in assay [2] and at most 100 nM in assay [3].

For `N#Cc1cn2c(NCc3c(F)ccc4c3CCO4)ncc(-c3ccc4c(c3)CCNC4=O)c2n1` [Example 172, 5-(((5-fluoro-2,3-dihydrobenzofuran-4-yl)methyl)amino)-8-(1-oxo-1,2,3,4-tetrahydroisoquinolin-6-yl)imidazo[1,2-c]pyrimidine-2-carbonitrile], the IC50 in assay [1] is 250 to 500 nM; in assay [2], below 100 nM; in assay [3], 100 to 500 nM.

Turning to `N#Cc1cc(-c2cnc(NCc3c(F)ccc4c3CCO4)n3cc(C#N)nc23)ccn1` [Example 188, 8-(2-cyanopyridin-4-yl)-5-(((5-fluoro-2,3-dihydrobenzofuran-4-yl)methyl)amino)imidazo[1,2-c]pyrimidine-2-carbonitrile], the IC50 lay in the range of 250 to 500 nM in assay [1], 100 to 500 nM in assay [2] and 100 to 500 nM in assay [3].

With `Cc1ncc(-c2cnc(NCc3c(F)ccc4c3CCO4)n3cc(C#N)nc23)c(C)n1` [Example 71, 8-(2,4-dimethylpyrimidin-5-yl)-5-(((5-fluoro-2,3-dihydrobenzofuran-4-yl)methyl)amino)imidazo[1,2-c]pyrimidine-2-carbonitrile], the IC50 in assay [1] is at most 250 nM; in assay [2] it was below 100 nM; in assay [3], 100 to 500 nM.

For the molecule `Cc1ncccc1-c1cnc(NCc2c(F)ccc3c2CCO3)n2cc(C(N)=O)nc12` [Example 137, 5-(((5-fluoro-2,3-dihydrobenzofuran-4-yl)methyl)amino)-8-(2-methylpyridin-3-yl)imidazo[1,2-c]pyrimidine-2-carboxamide], the figures for the IC50 in assay [1], in assay [2] and in assay [3] were at most 250 nM, below 100 nM and 100 to 500 nM, respectively.

As for `CN(C)CCn1nccc1-c1cnc(NCc2c(F)ccc3c2CCO3)n2cc(C#N)nc12` [Example 230, 8-(1-(2-(dimethylamino)ethyl)-1H-pyrazol-5-yl)-5-(((5-fluoro-2,3-dihydrobenzofuran-4-yl)methyl)amino)imidazo[1,2-c]pyrimidine-2-carbonitrile], the IC50 was at most 250 nM in assay [1], below 100 nM in assay [2] and at most 100 nM in assay [3].

Turning to `N#Cc1cn2c(NCc3c(F)ccc4c3CCO4)ncc(-c3cc[nH]c(=O)c3)c2n1` [Example 218, 5-(((5-fluoro-2,3-dihydrobenzofuran-4-yl)methyl)amino)-8-(2-oxo-1,2-dihydropyridin-4-yl)imidazo[1,2-c]pyrimidine-2-carbonitrile], the IC50 in assay [1] is 250 to 500 nM; in assay [2], below 100 nM; in assay [3], 100 to 500 nM.
